According to patent US20190315806A1, “POLYMYXIN DERIVATIVE, PREPARATION METHOD AND APPLICATION THEREOF” (priority 2016, published 2019):
Converted amounts (≈) assume the structure as drawn. Where a SMILES comes first, the peptide text is derived from it. Bridges are numbered along the chain shown (N, C = ends). [ ]: non-standard residue; d: D form. The star is where a group is joined. dPhe(4-CN) = N#Cc1ccc(C[C@@H](N)C(=O)O)cc1; dPhe(4-NH2) = Nc1ccc(C[C@@H](N)C(=O)O)cc1; Heptanoyl(6-Me) = CC(C)CCCCC(=O)*; X2 = CC[C@H](C)CCCCC(=O)*; dDab = NCC[C@@H](N)C(=O)O; Octanoyl = CCCCCCCC(=O)*; Dab = NCC[C@H](N)C(=O)O; X1 = CCCCCC(=O)CC(=O)*; X3 = CCCCC(=O)CC(=O)*

Columns and labels:
Type in all cases: cell-based
[1] = tested on: Klebsiella pneumoniae ATCC BAA-2146 (NDM-1); test: Antibacterial activity, MIC by dish double dilution method; settings: ATCC BAA-2146
Outline: (§1)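 MIC by CLSI agar two-fold dilution: compounds at final 0.03–128 μg/mL in agar, strains inoculated at 10^4 CFU/dot by multipoint inoculator. Incubation 18–24 h at 35 °C; MIC is the lowest concentration giving no colony growth.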

[2] = tested on: Escherichia coli ATCC 25922; settings: ATCC 25922
Outline: as §1

[3] = tested on: Pseudomonas aeruginosa ATCC 27853; settings: ATCC 27853
Outline: as §1

[4] = tested on: Staphylococcus epidermidis ATCC 12228; settings: ATCC 12228
Outline: as §1

[5] = tested on: Acinetobacter baumannii ATCC 19606; settings: ATCC 19606
Outline: as §1

[6] = Nephrotoxicity test, renal cytotoxicity by MTT method; settings: African green monkey
Protocol: African green monkey kidney cells (Vero cells) were cultured in MEM medium (Hyclone), 10% fetal calf serum (Invitrogen) was added before use, cultured at 37° C. under 5% CO2.
Experiment was carried out using MTT method. After digestion, cells in logarithmic growth phase were counted, then the cells were inoculated in a 96-well culture plate. After incubation for 24 h to be adherent, cells were treated with a concentration gradient of a compound of the invention (e.g., a compound prepared in the Embodiments) and the controls. After 72 h, the culture solution was removed, 100 uL of MTT reagent at a concentration of 0.5 mg/ml was added, the medium was removed after incubating for 3 hours in a 37° C. incubator. Add 150 μL DMSO solvent to each well, mix for 3 min, after which the absorbance at 570 nm (A) was measured with a microplate reader.
Cell viability %=(Adosed cell−Abackground)/(Acontrol cell−Abackground)×100%. The average value of 3 parallel wells was taken for each detection point, and the inhibition curve was drawn to calculate the IC50 value.
The African green monkey kidney cells (Vero cells) used in the experiment were from the Cell Resource Center of the Institute of Basic Medicine, Chinese Academy of Medical Sciences.

Row | MIC K. pneumoniae ATCC BAA-2146 (NDM-1) [1] | MIC E. coli ATCC 25922 [2] | MIC P. aeruginosa ATCC 27853 [3] | MIC S. epidermidis ATCC 12228 [4] | MIC A. baumannii ATCC 19606 [5] | Compound | IC50 at 72 h [6]
1 | 2 mg/L (≈ 1.68 µM) | 0.5 mg/L (≈ 0.42 µM) | 2 mg/L (≈ 1.68 µM) | 128 mg/L (≈ 108 µM) | 2 mg/L (≈ 1.68 µM) | CCCCC(=O)CC(=O)N[C@@H](CCN)C(=O)N[C@H](C(=O)N[C@@H](CCN)C(=O)N[C@H]1CCNC(=O)[C@H]([C@@H](C)O)NC(=O)[C@H](CCN)NC(=O)[C@H](CCN)NC(=O)[C@H](CC(C)C)NC(=O)[C@@H](Cc2ccccc2)NC(=O)[C@H](CCN)NC1=O)[C@@H](C)O [Compound 4, 3-oxoheptanoyl-Dab-Thr-Dab-ring(4-10)[Dab-Dab-D-Phe-Lue-Dab-Dab-Thr]] (X3-[Dab]T[Dab][Dab][Dab][dF]L[Dab][Dab]T; lactam 4-C) | 110 ± 9.08 mg/L (≈ 92.2 µM)
2 | 0.5 mg/L (≈ 0.415 µM) | 0.5 mg/L (≈ 0.415 µM) | 1 mg/L (≈ 0.831 µM) | 32 mg/L (≈ 26.6 µM) | 2 mg/L (≈ 1.66 µM) | CCCCCC(=O)CC(=O)N[C@@H](CCN)C(=O)N[C@H](C(=O)N[C@@H](CCN)C(=O)N[C@H]1CCNC(=O)[C@H]([C@@H](C)O)NC(=O)[C@H](CCN)NC(=O)[C@H](CCN)NC(=O)[C@H](CC(C)C)NC(=O)[C@@H](Cc2ccccc2)NC(=O)[C@H](CCN)NC1=O)[C@@H](C)O [Compound 5, 3-oxooctanoyl-Dab-Thr-Dab-ring(4-10)[Dab-Dab-D-Phe-Lue-Dab-Dab-Thr]] (X1-[Dab]T[Dab][Dab][Dab][dF]L[Dab][Dab]T; lactam 4-C) | 93.7 ± 7.38 mg/L (≈ 77.9 µM)
3 | 0.5 mg/L (≈ 0.429 µM) | 0.5 mg/L (≈ 0.429 µM) | 2 mg/L (≈ 1.72 µM) | >128 mg/L | 0.25 mg/L (≈ 0.215 µM) | CCCCCCCC(=O)N[C@@H](CCN)C(=O)N[C@H](C(=O)N[C@H](CO)C(=O)N[C@H]1CCNC(=O)[C@H]([C@@H](C)O)NC(=O)[C@H](CCN)NC(=O)[C@H](CCN)NC(=O)[C@H]([C@@H](C)O)NC(=O)[C@@H](Cc2ccccc2)NC(=O)[C@H](CCN)NC1=O)[C@@H](C)O [Compound 117, octanoyl-Dab-Thr-D-Ser-ring(4-10)[Dab-Dab-D-Phe-Thr-Dab-Dab-Thr]] (Octanoyl-[Dab]T[dS][Dab][Dab][dF]T[Dab][Dab]T; lactam 4-C) | 
4 | 4 mg/L (≈ 3.33 µM) | 4 mg/L (≈ 3.33 µM) | 4 mg/L (≈ 3.33 µM) | 8 mg/L (≈ 6.66 µM) | 4 mg/L (≈ 3.33 µM) | CCCCCCCC(=O)N[C@@H](CCN)C(=O)N[C@H](C(=O)N[C@@H](CCN)C(=O)N[C@H]1CCNC(=O)[C@H](CC(C)C)NC(=O)[C@H](CCN)NC(=O)[C@H](CCN)NC(=O)[C@H](CC(C)C)NC(=O)[C@@H](Cc2ccccc2)NC(=O)[C@H](CCN)NC1=O)[C@@H](C)O [Compound 129, octanoyl-Dab-Thr-Dab-ring(4-10)[Dab-Dab-D-Phe-Lue-Dab-Dab-Lue]] (Octanoyl-[Dab]T[Dab][Dab][Dab][dF]L[Dab][Dab]L; lactam 4-C) | 
5 | 1 mg/L (≈ 0.849 µM) | 0.5 mg/L (≈ 0.425 µM) | 1 mg/L (≈ 0.849 µM) | >128 mg/L | 1 mg/L (≈ 0.849 µM) | CC(C)CCCCC(=O)N[C@@H](CCN)C(=O)N[C@H](C(=O)N[C@H](CCN)C(=O)N[C@H]1CCNC(=O)[C@H]([C@@H](C)O)NC(=O)[C@H](CCN)NC(=O)[C@H](CCN)NC(=O)[C@H]([C@@H](C)O)NC(=O)[C@@H](Cc2ccccc2)NC(=O)[C@H](CCN)NC1=O)[C@@H](C)O [Compound 144, 6-methylheptanoyl-Dab-Thr-D-Dab-ring(4-10)[Dab-Dab-D-Phe-Thr-Dab-Dab-Thr]] ({Heptanoyl(6-Me)}-[Dab]T[dDab][Dab][Dab][dF]T[Dab][Dab]T; lactam 4-C) | 

Continued, compound first:

Row | Compound | MIC K. pneumoniae ATCC BAA-2146 (NDM-1) [1] | MIC E. coli ATCC 25922 [2] | MIC P. aeruginosa ATCC 27853 [3] | MIC S. epidermidis ATCC 12228 [4] | MIC A. baumannii ATCC 19606 [5] | IC50 at 72 h [6]
6 | CC[C@H](C)CCCCC(=O)N[C@@H](CCN)C(=O)N[C@H](C(=O)N[C@@H](CCN)C(=O)N[C@H]1CCNC(=O)[C@H]([C@@H](C)O)NC(=O)[C@H](CCN)NC(=O)[C@H](CCN)NC(=O)[C@H](CC(C)C)NC(=O)[C@@H](Cc2ccc(N)cc2)NC(=O)[C@H](CCN)NC1=O)[C@@H](C)O [Compound 11, (S)-6-methyloctanoyl-Dab-Thr-Dab-ring(4-10)[Dab-Dab-D-Phe(4-NH2)-Lue-Dab-Dab-Thr]] (X2-[Dab]T[Dab][Dab][Dab][dPhe(4-NH2)]L[Dab][Dab]T; lactam 4-C) | 2 mg/L (≈ 1.64 µM) | 1 mg/L (≈ 0.821 µM) | 2 mg/L (≈ 1.64 µM) | 128 mg/L (≈ 105 µM) | 1 mg/L (≈ 0.821 µM) | 166 ± 15.7 mg/L (≈ 137 µM)
7 | CC[C@H](C)CCCCC(=O)N[C@@H](CCN)C(=O)N[C@H](C(=O)N[C@@H](CCN)C(=O)N[C@H]1CCNC(=O)[C@H]([C@@H](C)O)NC(=O)[C@H](CCN)NC(=O)[C@H](CCN)NC(=O)[C@H](CC(C)C)NC(=O)[C@@H](Cc2ccc(C#N)cc2)NC(=O)[C@H](CCN)NC1=O)[C@@H](C)O [Compound 13, (S)-6-methyloctanoyl-Dab-Thr-Dab-ring(4-10)[Dab-Dab-D-Phe(4-CN)-Lue-Dab-Dab-Thr]] (X2-[Dab]T[Dab][Dab][Dab][dPhe(4-CN)]L[Dab][Dab]T; lactam 4-C) | 1 mg/L (≈ 0.814 µM) | 0.5 mg/L (≈ 0.407 µM) | 2 mg/L (≈ 1.63 µM) | 16 mg/L (≈ 13 µM) | 0.25 mg/L (≈ 0.203 µM) | 186 ± 11.3 mg/L (≈ 151 µM)
8 | CC[C@H](C)CCCCC(=O)N[C@@H](CCN)C(=O)N[C@H](C(=O)N[C@H](CCN)C(=O)N[C@H]1CCNC(=O)[C@H]([C@@H](C)O)NC(=O)[C@H](CCN)NC(=O)[C@H](CCN)NC(=O)[C@H]([C@@H](C)O)NC(=O)[C@@H](CC(C)C)NC(=O)[C@H](CCN)NC1=O)[C@@H](C)O [Compound 30, (S)-6-methyloctanoyl-Dab-Thr-D-Dab-ring(4-10)[Dab-Dab-D-Leu-Thr-Dab-Dab-Thr]] (X2-[Dab]T[dDab][Dab][Dab][dL]T[Dab][Dab]T; lactam 4-C) | 1 mg/L (≈ 0.864 µM) | 0.5 mg/L (≈ 0.432 µM) | 1 mg/L (≈ 0.864 µM) | >128 mg/L | 1 mg/L (≈ 0.864 µM) | 145 ± 12.1 mg/L (≈ 125 µM)
9 | CCCCCCCC(=O)N[C@@H](CCN)C(=O)N[C@H](C(=O)N[C@@H](CCN)C(=O)N[C@H]1CCNC(=O)[C@H](CO)NC(=O)[C@H](CCN)NC(=O)[C@H](CCN)NC(=O)[C@H]([C@@H](C)O)NC(=O)[C@@H](CC(C)C)NC(=O)[C@H](CCN)NC1=O)[C@@H](C)O [Compound 109, octanoyl-Dab-Thr-Dab-ring(4-10)[Dab-Dab-D-Leu-Thr-Dab-Dab-Ser]] (Octanoyl-[Dab]T[Dab][Dab][Dab][dL]T[Dab][Dab]S; lactam 4-C) | 2 mg/L (≈ 1.77 µM) | 1 mg/L (≈ 0.885 µM) | 1 mg/L (≈ 0.885 µM) | >128 mg/L | 16 mg/L (≈ 14.2 µM) | 
10 | CCCCCCCC(=O)N[C@@H](CCN)C(=O)N[C@H](C(=O)N[C@@H](CO)C(=O)N[C@H]1CCNC(=O)[C@H]([C@@H](C)O)NC(=O)[C@H](CCN)NC(=O)[C@H](CCN)NC(=O)[C@H]([C@@H](C)O)NC(=O)[C@@H](CC(C)C)NC(=O)[C@H](CCN)NC1=O)[C@@H](C)O [Compound 111, octanoyl-Dab-Thr-Ser-ring(4-10)[Dab-Dab-D-Leu-Thr-Dab-Dab-Thr]] (Octanoyl-[Dab]TS[Dab][Dab][dL]T[Dab][Dab]T; lactam 4-C) | 0.5 mg/L (≈ 0.442 µM) | 0.5 mg/L (≈ 0.442 µM) | 1 mg/L (≈ 0.885 µM) | 64 mg/L (≈ 56.6 µM) | 1 mg/L (≈ 0.885 µM) | 
